Here are results for 3 molecules from patent US8778303B2, “99mTc-labeled 19 amino acid containing peptide for use as phosphatidylethanolamine binding molecular probe and radiopharmaceutical” (The Medical College of Wisconsin, Inc., priority 2008, dated 2014).

Where no end group is shown, it is not given here.

Data set [1] in a line: Cysteine challenge stability test. Type of data set: physicochemical. The settings on record: cysteine-to-Duramycin ratio of 100:1. The procedure: HPLC method 2. Jupiter C18 column (90 Å pore size, 250×4.6 mm) was used with a buffered mobile phase system consisting of phosphate buffer (10 mM sodium phosphate, pH 6.7) and acetonitrile at a flow rate of 1.0 ml/min at room temperature. A baseline of 5 min at 90% buffer A (phosphate buffer, pH6.7) and 10% buffer B (acetonitrile) was followed by a linear gradient to 10% buffer A and 90% buffer B in 30 min. The level of radioactivity in the HPLC elute was monitored by gamma counting at an energy window of 140±15 keV.
HYNIC-Duramycin was labeled with ^99mTc using the tricine-phosphine co-ligand system. Specifically, 15 μg of HYNIC-Duramycin was mixed with 40 mg of tricine, 1 mg of TPPTS and 20 μg SnCl2 in 0.8 ml at pH 5.3. The labeling was initiated with the addition of about 1 mCi of ^99mTc. The incubation was allowed to proceed for 40 min at room temperature. The final radiopharmaceutical, ^99mTc-HYNIC-Duramycin, was analyzed and purified using HPLC method 2. After purification, acetonitrile was removed by evaporation under nitrogen, and ^99mTc-HYNIC-Duramycin was reconstituted in saline for usage. ^99mTc-HYNIC-Duramycin^1 was synthesized in the same fashion. For stability tests, cysteine challenge was carried out at a cysteine-to-^99mTc-Duramycin ratio of 100 to 1, in 0.01 mM phosphate buffer (pH 6.8) for 2 hr at room temperature. The sample was analyzed with radioHPLC (method 2).

For data set [2] the following is noted: liposomes; bind PtdE at equal-molar ratio; cited from earlier work.
For data set [3] the following is noted: literature (McNulty 2003); cited from earlier work.
The conditions of data set [4]: humans, including patients with Cystic Fibrosis; cited from earlier work.
In the next data set the target is rat serum albumin (rat, UniProt P02770 25-608). Put plainly: radioHPLC analysis of the tracer in the presence of rat serum albumin.
Chain of rat serum albumin (P02770 25-608 limits assumed): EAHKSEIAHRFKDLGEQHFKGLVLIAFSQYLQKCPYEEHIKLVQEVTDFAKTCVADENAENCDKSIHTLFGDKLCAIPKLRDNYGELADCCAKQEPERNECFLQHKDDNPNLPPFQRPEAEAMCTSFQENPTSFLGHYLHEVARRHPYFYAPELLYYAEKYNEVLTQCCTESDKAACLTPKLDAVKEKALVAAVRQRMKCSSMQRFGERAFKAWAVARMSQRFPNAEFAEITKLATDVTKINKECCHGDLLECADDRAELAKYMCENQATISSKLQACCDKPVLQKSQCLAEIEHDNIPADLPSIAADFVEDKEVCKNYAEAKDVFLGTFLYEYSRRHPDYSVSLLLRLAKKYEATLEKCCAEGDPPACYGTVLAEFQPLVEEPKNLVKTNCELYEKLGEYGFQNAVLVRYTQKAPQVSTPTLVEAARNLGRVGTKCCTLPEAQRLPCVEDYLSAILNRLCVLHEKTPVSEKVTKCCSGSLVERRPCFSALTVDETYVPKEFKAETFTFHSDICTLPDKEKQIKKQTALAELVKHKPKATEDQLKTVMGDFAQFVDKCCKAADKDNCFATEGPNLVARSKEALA

As to “19-amino acid peptide produced by Streptoverticillium cinnamoneus, CKQSCSFGPFTFVCDGNTK (SEQ ID NO 1), binds PtdE [Duramycin]”, the “radioactivity associated with the peptide diminished/reduced in cysteine challenge” value in data set [1] is reported as 90%. The dissociation constant entry in data set [2] is on record as “nanomolar range”. Also, the hepatic retention entry in data set [3] is on record as “retained for an extended duration (e.g., many days) in the liver without complete washout”. Moreover, the “toxicity and immunogenicity in clinical testing” value in data set [4] was “lack of significant toxicity and immunogenicity”.

“homolog of Duramycin with Arg replacing Lys at position two, CRQSCSFGPFTFVCDGNTK (SEQ ID NO 2) (not fully specified (bridges); ends and bridges not checked; also: lanthionine bridges, places not given here; listed as Streptoverticillium cinnamoneus) [Cinnamycin]”: in data set [2], the dissociation constant entry is given as “nanomolar range”.

B1: ^99mTc-HYNIC-Duramycin (peptide)
peptide: CKQSCSFGPFTFVCDGNTK
modifications: thioether bonds between positions 1-18, 4-14 and 5-11; amide bond between positions 6 and 19; one HYNIC (6-hydrazinopyridine-3-carboxylic acid) moiety on either Cys-1 or Lys-2, chelating 99mTc with tricine and TPPTS co-ligands
notes: Lantibiotic peptide, cross-linked; also called 99mTc-Duramycin; radiolabeled Duramycin
Turning to B1, the binding result with rat serum albumin is “no binding”.
